# According to US20260034222A1, “HYDROGEL COMPOSITION FOR THE TREATMENT OF PERITONEAL DISEASES” (UPyTher B.V., priority 2023, published 2026):
# Key:
# [1] = TLR-agonist release from UPy-PEG hydrogels; format: physicochemical; conditions: Polymer 6, 6 and 10 wt %, 0.5 mM MEDI9197 (FIG. 11B)
# Experimental: The TLR-agonist resiquimod (synonym R848) was loaded from a stock solution (50 mM in DMSO) to 1.27 mM in the hydrogel. The TLR-agonist telratolimod (synonym MEDI9197) was loaded from a stock solution (10 mM in DMSO) to 0.5 mM in the hydrogel.
# The drug loaded solution (100 μL) was transferred to a Millicell insert, which was placed in a 24-wells plate filled with PBS pH 7.4 (700 μL). At set time points the PBS was refreshed and the removed PBS was analyzed for R848 content UV absorbance at 320 nm. For MEDI9197, PBS was substituted for a volatile ammonium carbonate buffer and a HPLC-MS method was used. Release experiments were performed with n=3.
# [2] = Mitomycin C release from UPy-PEG hydrogels; format: physicochemical
# Experimental: Mitomycin C was loaded from a stock solution (52 mM in DMSO) to 0.52 mM in the hydrogel solution. The drug loaded solution (100 μL) was transferred to a Millicell insert, which was placed in a 24-wells plate filled with PBS pH 7.4 (600 μL). At set time points the PBS was refreshed and the removed PBS was analyzed for drug content UV absorbance at 363 nm. Release experiments were performed with n=3.
# patients = conditions: dosing regimens of 35 mg/m2; cited from earlier work
# [3] = in vivo; cited from earlier work
# [4] = Drug release from thermoreversible RTGel hydrogel; format: physicochemical; conditions: 0.4 mM, PBS pH 7.4 (FIG. 10)
# Experimental: RTGel hydrogel was formulated using the following ingredients and quantities:
# Mitomycin C and chol-MMC were loaded from a stock solution (30 mM in DMSO) to 0.4 mM in the hydrogel solution. The drug loaded solution (100 μL) was cooled and transferred to a Millicell insert, which was placed in a 24-wells plate filled with PBS pH 7.4 (600 μL). At set time points the PBS was refreshed and the removed PBS was analyzed for drug content UV absorbance at 363 nm. Release experiments were performed with n=3.
# tumor cell lines = conditions: cited from earlier work
# [5] = system: mice with peritoneal metastases; conditions: intraperitoneal lavage for 90 minutes versus 60 minutes; cited from earlier work
# [6] = in words; cited from earlier work
# [7] = Mitomycin C and VX970 combined release from hydrogel; format: physicochemical; conditions: Polymer 7, 5 wt %, 12 μg/ml VX970 with 0.52 mM MMC (FIG. 7)
# Experimental: Mitomycin C (MMC) was loaded from a stock solution (52 mM in DMSO) to 0.52 mM in the hydrogel solution. VX970 was loaded from a stock solution (1.2 mg/ml in DMSO) to 12 μg/ml. The drug loaded solution (100 μL) was transferred to a Millicell insert, which was placed in a 24-wells plate filled with PBS pH 7.4 (700 μL). At set time points the PBS was refreshed and the removed PBS was analyzed for MMC content by UV absorbance at 363 nm. For VX970, a HPLC-MS/MS method was used (Kiesel et al.). Release experiments were performed with n=3.
smiles,measurement,setting,value
"CCCCCCCCCCCCCCCCCC(=O)NCCCCOn1c(CCCC)nc2c(N)nc3ccccc3c21 [MEDI9197, telratolimod]",release rate relative to comparator,[1],released slower than MMC
CO[C@@]12[C@H](COC(N)=O)C3=C(C(=O)C(C)=C(N)C3=O)N1C[C@@H]1N[C@@H]12 [Mitomycin C],duration of sustained mitomycin C release,"[2]; polymer 6, 6, 7, 8 wt %, 0.52 mM, PBS pH 7.4 (FIG. 6)",1 to 2 days
same,dependence of drug release on polymer density,"[2]; polymer 6, 6, 7 or 8 wt %",not dependent on the polymer density
same,effect of higher precursor pH on burst release,"[2]; polymer 6, precursor pH 8.5, 9.0 or 9.5",did not give rise to an increased burst release
same,patients who developed severe bone marrow suppression,patients,28%
same,half-life in the peritoneal cavity,[3],1 to 1.5 h
same,time of release from Pluronic-based RTGel hydrogel,[4],1 to 2 days
same,concentration required to kill 90% of the cells,tumor cell lines; exposure time more than 10 hours,0.1 µg/mL
same,concentration needed to kill 90% of the cells in culture,tumor cell lines; exposure time shorter than one hour,5 µg/mL
same,survival,[5],better survival
"CNCc1ccc(-c2cc(-c3nc(-c4ccc(S(=O)(=O)C(C)C)cc4)cnc3N)on2)cc1 [VX-970, berzosertib]",solubility in water,[6],insoluble in water
same,release rate relative to MMC,[7],released slower than MMC
CC(=O)O[C@@]12CO[C@@H]1C[C@H](O)[C@@]1(C)C(=O)[C@H](O)C3=C(C)[C@@H](OC(=O)[C@H](O)[C@@H](NC(=O)OC(C)(C)C)c4ccccc4)C[C@@](O)([C@@H](OC(=O)c4ccccc4)[C@H]21)C3(C)C [docetaxel],clearance from the peritoneal cavity,[3],cleared in less than day
CC(=O)O[C@H]1C(=O)[C@@]2(C)[C@H]([C@H](OC(=O)c3ccccc3)[C@]3(O)C[C@H](OC(=O)[C@H](O)[C@@H](NC(=O)c4ccccc4)c4ccccc4)C(C)=C1C3(C)C)[C@]1(OC(C)=O)CO[C@@H]1C[C@@H]2O [paclitaxel],clearance from the peritoneal cavity,[3],cleared in less than day
